Data on 4 compounds can be found in ChEMBL document CHEMBL1201862, “PubChem BioAssay data set” (2004).

Each structure is given as a SMILES string.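 Interpolation was linear, between the two tested concentrations surrounding the appropriate level; five concentrations were tested over 48 hours in 96-well plates. GI50 = concentration required for 50% inhibition of growth.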 Calls of active or inactive are those of the source. Rule as the data show it: active = GI50 up to about 1.1 µM and inactive = higher.

Test systems include A498; SF-539; RXF 393; HCC 2998; DU-145; RPMI-8226; Hs-578T; T47D; OVCAR-4; OVCAR-3; OVCAR-8; MOLT-4; COLO 205; NCI-H460; UO-31; PC-3; SK-MEL-28; A549; ACHN; SF-268.
Test in all cases: NCI-60 cell line screen, 48 h

With `CC(=O)OCC1OC(N2C(c3ccccc3)=CC(c3ccccc3)C(C#N)=C2S)C(OC(C)=O)C(OC(C)=O)C1OC(C)=O` (stereo not given), the GI50 is 20.2 µM (inactive) in the assay on A498; 2.56 µM (inactive) in the assay with SF-539; 3.17 µM (inactive) with RXF 393; 25.4 µM (inactive) with HCC 2998; 26.4 µM (inactive) with DU-145; 13.3 µM (inactive) with RPMI-8226. The GI50 with Hs-578T was 3.27 µM (inactive); with T47D, 3.99 µM (inactive); in the assay with OVCAR-4, 1.55 µM (inactive); in the assay with OVCAR-3 it was 16.9 µM (inactive); in the assay on OVCAR-8, 3.88 µM (inactive); in the assay with MOLT-4 it was 48.6 µM (inactive). Besides, the GI50 in the assay on COLO 205 was 1.89 µM (inactive); with NCI-H460 it was 5.48 µM (inactive); in the assay on UO-31 it was 19.2 µM (inactive); with PC-3, 2.77 µM (inactive); with SK-MEL-28 it was 8.95 µM (inactive); with A549, 7.62 µM (inactive). The GI50 in the assay with ACHN is 5.58 µM (inactive); with SF-268, 5.33 µM (inactive).

As for `CC(C)=CC(=O)c1[nH]c2ccccc2c1CC(=O)NCCc1cn(C(c2ccccc2)(c2ccccc2)c2ccccc2)cn1`, the GI50 was 4.22 µM (inactive) in the assay on A498; 2.69 µM (inactive) in the assay with SF-539; 2.81 µM (inactive) in the assay with RXF 393; 1.97 µM (inactive) in the assay on HCC 2998; 5.13 µM (inactive) in the assay on DU-145; 1.98 µM (inactive) with RPMI-8226. In addition, the GI50 was 16.8 µM (inactive) in the assay on Hs-578T; 3.77 µM (inactive) with T47D; 3.86 µM (inactive) in the assay with OVCAR-4; 3.84 µM (inactive) in the assay on OVCAR-3; 3.96 µM (inactive) in the assay on OVCAR-8; 2.26 µM (inactive) in the assay with MOLT-4. The GI50 was 1.81 µM (inactive) in the assay on COLO 205; 2.97 µM (inactive) in the assay with NCI-H460; 3.55 µM (inactive) with UO-31; 2.46 µM (inactive) in the assay on PC-3; 3.4 µM (inactive) in the assay on SK-MEL-28; 2.87 µM (inactive) in the assay on A549. In addition, the GI50 in the assay with ACHN was 3.54 µM (inactive); in the assay with SF-268 it was 16.8 µM (inactive).

Consider `CCOC1OC(=O)c2cc3ccc4c(c3c(-c3ccc5c(c3)OCO5)c21)OCO4` (stereo not given), for which the GI50 in the assay with A498 is 9.4 µM (inactive); in the assay on SF-539, 1.42 µM (inactive); with RXF 393, 5.79 µM (inactive); with HCC 2998, 2.26 µM (inactive); in the assay on DU-145, 70.5 µM (inactive); with RPMI-8226, 4.12 µM (inactive). Besides, the GI50 in the assay with Hs-578T is 3.2 µM (inactive); in the assay on T47D, 9.79 µM (inactive); in the assay on OVCAR-4, 16.7 µM (inactive); in the assay on OVCAR-3 it was 0.417 µM (active); in the assay with OVCAR-8, 35.7 µM (inactive); in the assay with MOLT-4, 6.05 µM (inactive). The GI50 was 1.55 µM (inactive) in the assay with COLO 205; 3.56 µM (inactive) in the assay on NCI-H460; 22 µM (inactive) in the assay with UO-31; 10.1 µM (inactive) with PC-3; 9.53 µM (inactive) in the assay with SK-MEL-28; 3.08 µM (inactive) in the assay on A549. Besides, the values for the GI50 in the assay on ACHN and in the assay on SF-268 were 10.4 µM (inactive) and 5.46 µM (inactive), respectively.

As to `CSC1=NC(=O)CCN1C1OCC(OC(C)=O)C(OC(C)=O)C1OC(C)=O` (stereo not given), the GI50 with A498 is 15.6 µM (inactive); in the assay on SF-539, 12.1 µM (inactive); in the assay with RXF 393, 15.8 µM (inactive); in the assay on HCC 2998, 21.8 µM (inactive); in the assay with DU-145, 19.9 µM (inactive); in the assay with RPMI-8226, 6.9 µM (inactive). Besides, the GI50 with Hs-578T was 12.6 µM (inactive); in the assay on T47D, 16.8 µM (inactive); in the assay on OVCAR-4, 19.2 µM (inactive); in the assay on OVCAR-3, 12.6 µM (inactive); with OVCAR-8 it was 15.8 µM (inactive); in the assay on MOLT-4, 4.66 µM (inactive). For the same compound, the GI50 in the assay with COLO 205 was 23.9 µM (inactive); in the assay with NCI-H460 it was 10.4 µM (inactive); in the assay with UO-31 it was 19.3 µM (inactive); with PC-3, 15 µM (inactive); with SK-MEL-28 it was 16.1 µM (inactive); in the assay on A549, 18.6 µM (inactive). Moreover, the GI50 in the assay on ACHN is 17 µM (inactive); in the assay on SF-268, 16.9 µM (inactive).
